Broadly, the EC50 is the concentration needed to bring the measured effect to its halfway point.

MALT1, sequence (Q9UDY8 whole entry): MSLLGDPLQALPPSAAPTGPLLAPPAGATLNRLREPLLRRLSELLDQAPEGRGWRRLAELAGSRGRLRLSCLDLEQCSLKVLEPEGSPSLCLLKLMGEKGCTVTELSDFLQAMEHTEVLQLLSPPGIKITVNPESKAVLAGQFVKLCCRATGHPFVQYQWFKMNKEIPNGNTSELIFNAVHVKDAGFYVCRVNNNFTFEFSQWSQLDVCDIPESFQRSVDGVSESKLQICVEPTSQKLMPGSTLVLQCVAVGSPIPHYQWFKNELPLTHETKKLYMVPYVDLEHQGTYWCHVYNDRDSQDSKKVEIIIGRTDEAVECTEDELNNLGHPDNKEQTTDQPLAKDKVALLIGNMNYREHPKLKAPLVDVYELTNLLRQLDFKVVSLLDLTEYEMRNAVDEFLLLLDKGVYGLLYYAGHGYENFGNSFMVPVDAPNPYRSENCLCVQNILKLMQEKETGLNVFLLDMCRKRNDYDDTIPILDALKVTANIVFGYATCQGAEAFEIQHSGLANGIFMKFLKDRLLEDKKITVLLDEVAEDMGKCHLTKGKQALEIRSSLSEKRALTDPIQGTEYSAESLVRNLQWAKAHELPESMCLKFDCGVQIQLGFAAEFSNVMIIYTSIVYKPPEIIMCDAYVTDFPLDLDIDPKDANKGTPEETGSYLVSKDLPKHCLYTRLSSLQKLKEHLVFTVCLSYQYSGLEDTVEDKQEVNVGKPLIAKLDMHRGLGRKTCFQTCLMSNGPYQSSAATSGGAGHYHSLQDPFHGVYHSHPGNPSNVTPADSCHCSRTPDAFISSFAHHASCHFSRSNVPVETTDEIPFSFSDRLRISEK

The experiment addresses MALT1 (Homo sapiens (Human), UniProt Q9UDY8). The experiment in a line: MALT1 enzymatic activity inhibition (fluorescence, Ac-LRSR-AMC substrate). The format is biochemical. The note with it: recombinant MALT1 1.5 ng/μl, Ac-LRSR-AMC 1 μM. The method, then:
Compound activity was determined using recombinant MALT1 protein (Creative Biomart, Cat #MALT1-28H) and Ac-LRSR-AMC Substrate in an in vitro enzymatic reaction. The enzymatic assay used to determine activity was a Fluorescence assay using a Microplate Reader ClarioStar Plus. The enzymatic reaction was carried out in 1× Assay Buffer (50 mM HEPES pH 7.2-7.4, 100 mM NaCl, 900 mM Sodium citrate, 10 mM DTT). The compounds were dispensed on a 384-well Diamond Well Plate (Axygen, Cat #P-384-120SQ-C—S) using the Biomek FX liquid handling system at 100× solutions of compounds in DMSO. 2.5×MALT1 mix (final concentration 1.5 ng/μl of MALT1) was prepared in 1× Assay Buffer and 8 μl of mixture per well were added into 384w white Reaction Plates with NBS (Corning, Cat #4513). 8 μl of 1× Assay Buffer were used for negative control. Plates were centrifuged for 1 min at 200 g. Next, the compounds were added to Reaction plates using Biomek station via following steps: 1 μl of 100× compounds (in DMSO) was mixed thoroughly with 19 μl of 1× Assay Buffer, then 4 μl of this mixture were added to Reaction plates with 8 μl of MALT1 mix. Plates were centrifuged for 1 min at 200 g and incubated for 10 minutes at rt. Next, 2.5× Ac-LRSR-AMC mix (final concentration 1 μM of Ac-LRSR-AMC) was prepared in 1× Assay Buffer and 8 μl of mixture per well were added to Reaction Plates using Biomek station. Plates were centrifuged for 1 min at 200 g, then the fluorescence was measured immediately using Microplate Reader. Plates were incubated for 30 minutes at 37° C., then for 30 minutes at rt. The fluorescence was measured after the whole incubation using Microplate Reader. The reaction signal was calculated as the subtraction of the first data set values from the second. The % inhibition was then used to calculate the IC50 values. The results of this assay are shown in the Table A. The values of EC50 shown as a letters A-E, where: A≤0.2 μM; 0.2 μM<B≤0.5 μM; 0.5 μM<C≤1 μM; 1<D≤5 μM; E >5.
Turning to `Cc1cc(NC(=O)Nc2cnc3ccnn3c2C2CCCO2)cnc1N1CCN(C(=O)CCOCCOCCN2CCN(c3ccc4c(c3)CN(C3CCC(=O)NC3=O)C4=O)CC2)CC1` (centres unmarked) [Compound 31, 1-[6-[4-[3-[2-[2-[4-[2-(2,6-dioxo-3-piperidyl)-1-oxo-isoindolin-5-yl]piperazin-1-yl]ethoxy]ethoxy]propanoyl]piperazin-1-yl]-5-methyl-3-pyridyl]-3-(7-tetrahydrofuran-2-ylpyrazolo[1,5-a]pyrimidin-6-yl)urea], the EC50 is greater than 5 µM.

Regarding `O=C(CCOCCOCCN1CCN(c2ccc3c(c2)CN(C2CCC(=O)NC2=O)C3=O)CC1)NCCOc1ncc(Cl)cc1NC(=O)Nc1cnc2ccnn2c1C1CCCO1` (centres unmarked) [Compound 32, N-[2-[[5-chloro-3-[(7-tetrahydrofuran-2-ylpyrazolo[1,5-a]pyrimidin-6-yl)carbamoylamino]-2-pyridyl]oxy]ethyl]-3-[2-[2-[4-[2-(2,6-dioxo-3-piperidyl)-1-oxo-isoindolin-5-yl]piperazin-1-yl]ethoxy]ethoxy]propanamide], the EC50 was in the range of 1 to 5 µM.

Regarding `Cc1cc(NC(=O)Nc2cnc3ccnn3c2C2CCCO2)cnc1-n1cc(C(=O)NCCOCCOCCC(=O)N2CCN(c3ccc4c(c3)CN(C3CCC(=O)NC3=O)C4=O)CC2)cn1` (centres unmarked) [Compound 33, N-[2-[2-[3-[4-[2-(2,6-dioxo-3-piperidyl)-1-oxo-isoindolin-5-yl]piperazin-1-yl]-3-oxo-propoxy]ethoxy]ethyl]-1-[3-methyl-5-[(7-tetrahydrofuran-2-ylpyrazolo[1,5-a]pyrimidin-6-yl)carbamoylamino]-2-pyridyl]pyrazole-4-carboxamide], the EC50 lay within 1 to 5 µM.

With `Cc1cc(NC(=O)Nc2cnc3ccnn3c2C2CCCO2)cnc1N1CCN(C(=O)CCOCCN2CCN(c3ccc4c(c3)CN(C3CCC(=O)NC3=O)C4=O)CC2)CC1` (centres unmarked) [Compound 35, 1-[6-[4-[3-[2-[4-[2-(2,6-dioxo-3-piperidyl)-1-oxo-isoindolin-5-yl]piperazin-1-yl]ethoxy]propanoyl]piperazin-1-yl]-5-methyl-3-pyridyl]-3-(7-tetrahydrofuran-2-ylpyrazolo[1,5-a]pyrimidin-6-yl)urea], the EC50 was greater than 5 µM.

On to `O=C(CCOCCN1CCN(c2ccc3c(c2)CN(C2CCC(=O)NC2=O)C3=O)CC1)NCCOc1ncc(Cl)cc1NC(=O)Nc1cnc2ccnn2c1C1CCCO1` (centres unmarked) [Compound 36, N-[2-[[5-chloro-3-[(7-tetrahydrofuran-2-ylpyrazolo[1,5-a]pyrimidin-6-yl)carbamoylamino]-2-pyridyl]oxy]ethyl]-3-[2-[4-[2-(2,6-dioxo-3-piperidyl)-1-oxo-isoindolin-5-yl]piperazin-1-yl]ethoxy]propanamide], for which the EC50 was in the range of 0.5 to 1 µM.

For `O=C(CCOCCN1CCN(c2ccc3c(c2)CN(C2CCC(=O)NC2=O)C3=O)CC1)NCCOc1ncc(Cl)cc1NC(=O)Nc1cnc2ccnn2c1C1CCOC1` (centres unmarked) [Compound 39, N-[2-[[5-chloro-3-[(7-tetrahydrofuran-3-ylpyrazolo[1,5-a]pyrimidin-6-yl)carbamoylamino]-2-pyridyl]oxy]ethyl]-3-[2-[4-[2-(2,6-dioxo-3-piperidyl)-1-oxo-isoindolin-5-yl]piperazin-1-yl]ethoxy]propanamide], the EC50 lay in the range of 0.5 to 1 µM.

In the case of `O=C(CCOCCOCCN1CCN(c2ccc3c(c2)CN(C2CCC(=O)NC2=O)C3=O)CC1)NCCOc1ncc(Cl)cc1NC(=O)Nc1cnc2ccnn2c1C1CCOC1` (centres unmarked) [Compound 40, N-[2-[[5-chloro-3-[(7-tetrahydrofuran-3-ylpyrazolo[1,5-a]pyrimidin-6-yl)carbamoylamino]-2-pyridyl]oxy]ethyl]-3-[2-[2-[4-[2-(2,6-dioxo-3-piperidyl)-1-oxo-isoindolin-5-yl]piperazin-1-yl]ethoxy]ethoxy]propanamide], the EC50 is 0.5 to 1 µM.

On to `O=C(CCOCCOCCN1CCN(c2ccc3c(c2)CN(C2CCC(=O)NC2=O)C3=O)CC1)NCCOc1ncc(Cl)cc1NC(=O)Nc1cnc2ccnn2c1C1CCOCC1` (centres unmarked) [Compound 41, N-[2-[[5-chloro-3-[(7-tetrahydropyran-4-ylpyrazolo[1,5-a]pyrimidin-6-yl)carbamoylamino]-2-pyridyl]oxy]ethyl]-3-[2-[2-[4-[2-(2,6-dioxo-3-piperidyl)-1-oxo-isoindolin-5-yl]piperazin-1-yl]ethoxy]ethoxy]propanamide], for which the EC50 is 0.5 to 1 µM.

`O=C(CCOCCN1CCN(c2ccc3c(c2)CN(C2CCC(=O)NC2=O)C3=O)CC1)NCCOc1ncc(Cl)cc1NC(=O)Nc1cnc2ccnn2c1C1CCOCC1` (centres unmarked) [Compound 42, N-[2-[[5-chloro-3-[(7-tetrahydropyran-4-ylpyrazolo[1,5-a]pyrimidin-6-yl)carbamoylamino]-2-pyridyl]oxy]ethyl]-3-[2-[4-[2-(2,6-dioxo-3-piperidyl)-1-oxo-isoindolin-5-yl]piperazin-1-yl]ethoxy]propanamide]: the EC50 was in the range of 0.5 to 1 µM.

Regarding `O=C(CCOCCN1CCN(c2ccc3c(c2)CN(C2CCC(=O)NC2=O)C3=O)CC1)NCCOc1ccc(Cl)cc1NC(=O)Nc1cnc2ccnn2c1C1CCCC1` (centres unmarked) [Compound 43, N-[2-[4-chloro-2-[(7-cyclopentylpyrazolo[1,5-a]pyrimidin-6-yl)carbamoylamino]phenoxy]ethyl]-3-[2-[4-[2-(2,6-dioxo-3-piperidyl)-1-oxo-isoindolin-5-yl]piperazin-1-yl]ethoxy]propanamide], the EC50 was in the range of 1 to 5 µM.

As to `O=C(CCOCCN1CCN(c2ccc3c(c2)CN(C2CCC(=O)NC2=O)C3=O)CC1)NCCOc1ncc(Cl)cc1NC(=O)Nc1cnc2ccnn2c1C1CCCCC1` (centres unmarked) [Compound 44], the EC50 is 1 to 5 µM.

As for `O=C(CCOCCN1CCN(c2ccc3c(c2)CN(C2CCC(=O)NC2=O)C3=O)CC1)NCCNC(=O)C1CCCN1C(=O)Nc1cnc2ccnn2c1C1CCCC1` (centres unmarked) [Compound 45, N1-(7-cyclopentylpyrazolo[1,5-a]pyrimidin-6-yl)-N2-[2-[3-[2-[4-[2-(2,6-dioxo-3-piperidyl)-1-oxo-isoindolin-5-yl]piperazin-1-yl]ethoxy]propanoylamino]ethyl]pyrrolidine-1,2-dicarboxamide], the EC50 is greater than 5 µM.

For `O=C(CCOCCN1CCN(c2ccc3c(c2)CN(C2CCC(=O)NC2=O)C3=O)CC1)NCCNC(=O)[C@@H]1C[C@@H](O)CN1C(=O)Nc1cnc2ccnn2c1C1CCCC1` (stereo partly drawn) [Compound 46, (2S,4R)-N1-(7-cyclopentylpyrazolo[1,5-a]pyrimidin-6-yl)-N2-[2-[3-[2-[4-[2-(2,6-dioxo-3-piperidyl)-1-oxo-isoindolin-5-yl]piperazin-1-yl]ethoxy]propanoylamino]ethyl]-4-hydroxy-pyrrolidine-1,2-dicarboxamide], the EC50 was greater than 5 µM.

Turning to `O=C(CCOCCOCCN1CCN(c2ccc3c(c2)CN(C2CCC(=O)NC2=O)C3=O)CC1)NCCNC(=O)[C@@H]1C[C@@H](O)CN1C(=O)Nc1cnc2ccnn2c1C1CCCC1` (stereo partly drawn) [Compound 47, (2S,4R)-N1-(7-cyclopentylpyrazolo[1,5-a]pyrimidin-6-yl)-N2-[2-[3-[2-[2-[4-[2-(2,6-dioxo-3-piperidyl)-1-oxo-isoindolin-5-yl]piperazin-1-yl]ethoxy]ethoxy]propanoylamino]ethyl]-4-hydroxy-pyrrolidine-1,2-dicarboxamide], the EC50 is greater than 5 µM.

As for `O=C(CCOCCOCCN1CCN(c2ccc3c(c2)CN(C2CCC(=O)NC2=O)C3=O)CC1)NCCNC(=O)C1CCCN1C(=O)Nc1cnc2ccnn2c1C1CCCC1` (centres unmarked) [Compound 48, N1-(7-cyclopentylpyrazolo[1,5-a]pyrimidin-6-yl)-N2-[2-[3-[2-[2-[4-[2-(2,6-dioxo-3-piperidyl)-1-oxo-isoindolin-5-yl]piperazin-1-yl]ethoxy]ethoxy]propanoylamino]ethyl]pyrrolidine-1,2-dicarboxamide], the concentration giving a half-maximal response (EC50) was greater than 5 µM.

In the case of `O=C(CCOCCOCCN1CCN(c2ccc3c(c2)CN(C2CCC(=O)NC2=O)C3=O)CC1)NCCOc1ccc(Cl)cc1NC(=O)Nc1cnc2ccnn2c1C1CCCC1` (centres unmarked) [Compound 49, N-[2-[4-chloro-2-[(7-cyclopentylpyrazolo[1,5-a]pyrimidin-6-yl)carbamoylamino]phenoxy]ethyl]-3-[2-[2-[4-[2-(2,6-dioxo-3-piperidyl)-1-oxo-isoindolin-5-yl]piperazin-1-yl]ethoxy]ethoxy]propanamide], the half-maximal effective concentration (EC50) was in the range of 1 to 5 µM.

`O=C(CCOCCN1CCN(c2ccc3c(c2)CN(C2CCC(=O)NC2=O)C3=O)CC1)NCCOc1ncc(Cl)cc1NC(=O)Nc1cn2ccnc2nc1C1CCCCC1` (centres unmarked) [Compound 50, N-[2-[[5-chloro-3-[(7-cyclohexylimidazo[1,2-a]pyrimidin-6-yl)carbamoylamino]-2-pyridyl]oxy]ethyl]-3-[2-[4-[2-(2,6-dioxo-3-piperidyl)-1-oxo-isoindolin-5-yl]piperazin-1-yl]ethoxy]propanamide]: the EC50 was in the range of 1 to 5 µM.

These data come from patent US20250163066A1, “PROTACs of MALT1” (TEGID THERAPEUTICS, INC., priority 2022, published 2025).
